From patent US10294202B2, “Pyrrolidinones as herbicides” (FMC Corporation, priority 2013, dated 2019)

How the values were obtained:
[1] = test system: barnyardgrass; assay: Test A pre-/postemergence herbicide test; assay type: in vivo, Echinochloa crus-galli; settings: for Plant response rating, Barnyardgrass: 0 to 100 scale
Method in brief: (§1)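 Directed soil spray to seeded pots (preemergence) or spray onto one- to two-leaf seedlings 2–10 cm tall (postemergence); loam/sand substrate throughout. Evaluated visually after about 10 days against untreated plants, 0 = no effect, 100 = complete control.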

[2] = test system: kochia; assay: Test A pre-/postemergence herbicide test; assay type: in vivo, Kochia scoparia; settings: for Plant response rating, Kochia: 0 to 100 scale
Method in brief: as §1

[3] = test system: ragweed; assay: Test A pre-/postemergence herbicide test; assay type: in vivo, Ambrosia elatior; settings: for Plant response rating, Ragweed: 0 to 100 scale
Method in brief: as §1

[4] = test system: ryegrass, Italian; assay: Test A pre-/postemergence herbicide test; assay type: in vivo, Lolium multiflorum; settings: for Plant response rating, Ryegrass, Italian: 0 to 100 scale
Method in brief: as §1

[5] = test system: giant foxtail; assay: Test A pre-/postemergence herbicide test; assay type: in vivo, Setaria faberii; settings: for Plant response rating, Foxtail, Giant: 0 to 100 scale
Method in brief: as §1

[6] = test system: pigweed; assay: Test A pre-/postemergence herbicide test; assay type: in vivo, Amaranthus retroflexus; settings: for Plant response rating, Pigweed: 0 to 100 scale
Method in brief: as §1

[7] = test system: wheat; assay: Test A pre-/postemergence herbicide test; assay type: in vivo, Triticum aestivum; settings: Postemergence; for Plant response rating, Wheat: 125 g ai/ha, 0 to 100 scale, 0 is no effect, 100 is complete control; for Wheat plant response rating (0 to 100 scale, 0 is no effect, 100 is complete control): 500 g ai/ha
Method in brief: as §1

[8] = test system: corn; assay: Test A pre-/postemergence herbicide test; assay type: in vivo, Zea mays; settings: Postemergence; for Plant response rating, Corn: 125 g ai/ha, 0 to 100 scale, 0 is no effect, 100 is complete control; for Corn plant response rating (0 to 100 scale, 0 is no effect, 100 is complete control): 500 g ai/ha
Method in brief: as §1

[9] = test system: blackgrass; assay: Test A postemergence herbicide test; assay type: in vivo, Alopecurus myosuroides; settings: for Plant response rating, Blackgrass: 125 g ai/ha, 0 to 100 scale, 0 is no effect, 100 is complete control; for Blackgrass plant response rating (0 to 100 scale, 0 is no effect, 100 is complete control): 500 g ai/ha
Method in brief: (§2)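 Ratings compare treated with untreated plants roughly 10 days after a postemergence application made at the one- to two-leaf stage. Scoring uses 0–100, where 0 means no effect and 100 complete control.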

[10] = test system: galium; assay: Test A postemergence herbicide test; assay type: in vivo, Galium aparine; settings: for Plant response rating, Galium: 125 g ai/ha, 0 to 100 scale, 0 is no effect, 100 is complete control; for Galium plant response rating (0 to 100 scale, 0 is no effect, 100 is complete control): 500 g ai/ha
Method in brief: as §2

[11] = test system: rice; assay: Test B flooded paddy test; assay type: in vivo, Oryza sativa; settings: 500 g ai/ha, Flood; scale of 0 to 100 where 0 is no effect and 100 is complete control
Method in brief: (§3)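 First, plants reach the 2-leaf stage; next, pots are flooded to 3 cm and compound is delivered into the water; finally, after 13 to 15 greenhouse days at constant depth, injury is graded visually from 0 to 100 against controls.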

[12] = test system: sedge, umbrella; assay: Test B flooded paddy test; assay type: in vivo, Cyperus difformis; settings: 500 g ai/ha, Flood; scale of 0 to 100 where 0 is no effect and 100 is complete control
Method in brief: as §3

[13] = test system: ducksalad; assay: Test B flooded paddy test; assay type: in vivo, Heteranthera limosa; settings: 500 g ai/ha, Flood; scale of 0 to 100 where 0 is no effect and 100 is complete control
Method in brief: as §3

[14] = test system: barnyardgrass; assay: Test B flooded paddy test; assay type: in vivo, Echinochloa crus-galli; settings: 500 g ai/ha, Flood; scale of 0 to 100 where 0 is no effect and 100 is complete control
Method in brief: as §3

[15] = 125 g ai/ha, visual rating, 0 no effect, 100 complete control, approximately 10 days, preemergence
[16] = Postemergence, 125 g ai/ha, 0 is no effect, 100 is complete control
[17] = preemergence, 500 g ai/ha, 0 is no effect and 100 is complete control

| SMILES | Plant response rating, Barnyardgrass [1, 15] | Plant response rating, Barnyardgrass [1, 16] | Barnyardgrass plant response rating (0 to 100 scale, 0 is no effect, 100 is complete control) ([1]; Postemergence, 500 g ai/ha) | Plant response rating, Barnyardgrass [1, 17] | Plant response rating, Kochia [2, 15] | Plant response rating, Kochia [2, 16] | Kochia plant response rating (0 to 100 scale, 0 is no effect, 100 is complete control) ([2]; Postemergence, 500 g ai/ha) | Plant response rating, Kochia [2, 17] | Plant response rating, Ragweed [3, 15] | Plant response rating, Ragweed [3, 16] | Ragweed plant response rating (0 to 100 scale, 0 is no effect, 100 is complete control) ([3]; Postemergence, 500 g ai/ha) | Plant response rating, Ragweed [3, 17] | Plant response rating, Ryegrass, Italian [4, 15] | Plant response rating, Ryegrass, Italian [4, 16] | Ryegrass, Italian plant response rating (0 to 100 scale, 0 is no effect, 100 is complete control) ([4]; Postemergence, 500 g ai/ha) | Plant response rating, Ryegrass, Italian [4, 17] | Plant response rating, Foxtail, Giant [5, 15] | Plant response rating, Foxtail, Giant [5, 16] | Foxtail, Giant plant response rating (0 to 100 scale, 0 is no effect, 100 is complete control) ([5]; Postemergence, 500 g ai/ha) | Plant response rating, Foxtail, Giant [5, 17] | further results |
| --- | --- | --- | --- | --- | --- | --- | --- | --- | --- | --- | --- | --- | --- | --- | --- | --- | --- | --- | --- | --- | --- |
| CON(C(=O)C1C(=O)NCC1c1ccc(F)c(F)c1)c1cc([N+](=O)[O-])ccc1F (stereo not drawn) [Compound 175] | 0 | 0 | 0 | 0 | 0 | 0 | 0 | 0 | 0 | 0 | 0 | 0 | 0 | 0 | 0 | 0 | 0 | 0 | 0 | 0 | Plant response rating, Pigweed [6, 15]: 0; Plant response rating, Pigweed [6, 16]: 0; Pigweed plant response rating (0 to 100 scale, 0 is no effect, 100 is complete control) ([6]; Postemergence, 500 g ai/ha): 0; Plant response rating, Pigweed [6, 17]: 0; Plant response rating, Wheat [7]: 0; Wheat plant response rating (0 to 100 scale, 0 is no effect, 100 is complete control) [7]: 0; Plant response rating, Corn [8]: 0; Corn plant response rating (0 to 100 scale, 0 is no effect, 100 is complete control) [8]: 0; Plant response rating, Blackgrass [9]: 0; Blackgrass plant response rating (0 to 100 scale, 0 is no effect, 100 is complete control) [9]: 0; Plant response rating, Galium [10]: 0; Galium plant response rating (0 to 100 scale, 0 is no effect, 100 is complete control) [10]: 0; Plant response rating, Rice [11]: 0; Plant response rating, Sedge, Umbrella [12]: 0; Plant response rating, Ducksalad [13]: 30; Plant response rating, Barnyardgrass [14]: 0 |
| O=C1NCC(c2ccc(Cl)cc2)C1C(=O)Nc1ccccc1F (stereo not drawn) [Compound 217] | 70 | 70 | 90 | 90 | 30 | 20 | 70 | 70 | 0 | 0 | 30 | 50 | 40 | 0 | 30 | 60 | 90 | 80 | 90 | 90 | Plant response rating, Pigweed [6, 15]: 20; Plant response rating, Pigweed [6, 16]: 0; Pigweed plant response rating (0 to 100 scale, 0 is no effect, 100 is complete control) ([6]; Postemergence, 500 g ai/ha): 0; Plant response rating, Pigweed [6, 17]: 40; Plant response rating, Wheat [7]: 20; Wheat plant response rating (0 to 100 scale, 0 is no effect, 100 is complete control) [7]: 30; Plant response rating, Corn [8]: 20; Corn plant response rating (0 to 100 scale, 0 is no effect, 100 is complete control) [8]: 30; Plant response rating, Blackgrass [9]: 20; Blackgrass plant response rating (0 to 100 scale, 0 is no effect, 100 is complete control) [9]: 50; Plant response rating, Galium [10]: 30; Galium plant response rating (0 to 100 scale, 0 is no effect, 100 is complete control) [10]: 50; Plant response rating, Rice [11]: 0; Plant response rating, Sedge, Umbrella [12]: 0; Plant response rating, Ducksalad [13]: 100; Plant response rating, Barnyardgrass [14]: 40 |
| O=C1NCC(c2ccc(Cl)cc2)C1C(=O)Nc1ccccc1C(F)(F)F (stereo not drawn) [Compound 219] | 30 | 40 | 50 | 60 | 10 | 0 | 10 | 70 | 0 | 0 | 0 | 0 | 0 | 0 | 0 | 0 | 90 | 60 | 80 | 90 | Plant response rating, Pigweed [6, 15]: 0; Plant response rating, Pigweed [6, 16]: 0; Pigweed plant response rating (0 to 100 scale, 0 is no effect, 100 is complete control) ([6]; Postemergence, 500 g ai/ha): 0; Plant response rating, Pigweed [6, 17]: 0; Plant response rating, Wheat [7]: 0; Wheat plant response rating (0 to 100 scale, 0 is no effect, 100 is complete control) [7]: 0; Plant response rating, Corn [8]: 0; Corn plant response rating (0 to 100 scale, 0 is no effect, 100 is complete control) [8]: 0; Plant response rating, Blackgrass [9]: 40; Blackgrass plant response rating (0 to 100 scale, 0 is no effect, 100 is complete control) [9]: 50; Plant response rating, Galium [10]: 30; Galium plant response rating (0 to 100 scale, 0 is no effect, 100 is complete control) [10]: 60; Plant response rating, Rice [11]: 0; Plant response rating, Sedge, Umbrella [12]: 0; Plant response rating, Ducksalad [13]: 100; Plant response rating, Barnyardgrass [14]: 40 |
| O=C1NCC(c2ccc(Cl)cc2)C1C(=O)Nc1ccccc1Cl (stereo not drawn) [Compound 220] | 30 | 40 | 80 | 80 | 0 | 0 | 40 | 40 | 0 | 0 | 0 | 0 | 0 | 0 | 20 | 30 | 80 | 50 | 80 | 90 | Plant response rating, Pigweed [6, 15]: 0; Plant response rating, Pigweed [6, 16]: 0; Pigweed plant response rating (0 to 100 scale, 0 is no effect, 100 is complete control) ([6]; Postemergence, 500 g ai/ha): 0; Plant response rating, Pigweed [6, 17]: 20; Plant response rating, Wheat [7]: 0; Wheat plant response rating (0 to 100 scale, 0 is no effect, 100 is complete control) [7]: 20; Plant response rating, Corn [8]: 0; Corn plant response rating (0 to 100 scale, 0 is no effect, 100 is complete control) [8]: 20; Plant response rating, Blackgrass [9]: 0; Blackgrass plant response rating (0 to 100 scale, 0 is no effect, 100 is complete control) [9]: 40; Plant response rating, Galium [10]: 0; Galium plant response rating (0 to 100 scale, 0 is no effect, 100 is complete control) [10]: 30; Plant response rating, Rice [11]: 0; Plant response rating, Sedge, Umbrella [12]: 0; Plant response rating, Ducksalad [13]: 100; Plant response rating, Barnyardgrass [14]: 0 |
| O=C1NCC(c2ccc(Cl)cc2)C1C(=O)Nc1cccc(Cl)c1Cl (stereo not drawn) [Compound 221] | 0 | 0 | 0 | 0 | 0 | 0 | 0 | 0 | 0 | 0 | 0 | 0 | 0 | 0 | 0 | 0 | 60 | 0 | 30 | 80 | Plant response rating, Pigweed [6, 15]: 0; Plant response rating, Pigweed [6, 16]: 0; Pigweed plant response rating (0 to 100 scale, 0 is no effect, 100 is complete control) ([6]; Postemergence, 500 g ai/ha): 0; Plant response rating, Pigweed [6, 17]: 0; Plant response rating, Wheat [7]: 0; Wheat plant response rating (0 to 100 scale, 0 is no effect, 100 is complete control) [7]: 0; Plant response rating, Corn [8]: 0; Corn plant response rating (0 to 100 scale, 0 is no effect, 100 is complete control) [8]: 0; Plant response rating, Blackgrass [9]: 0; Blackgrass plant response rating (0 to 100 scale, 0 is no effect, 100 is complete control) [9]: 0; Plant response rating, Galium [10]: 0; Galium plant response rating (0 to 100 scale, 0 is no effect, 100 is complete control) [10]: 0; Plant response rating, Rice [11]: 0; Plant response rating, Sedge, Umbrella [12]: 0; Plant response rating, Ducksalad [13]: 0; Plant response rating, Barnyardgrass [14]: 0 |
